Measured values reported in article PMC8457666 (Science Advances, 2021).
Substitutions are numbered along the chain they refer to.

What was measured:
WzcCDΔC [1] = molecular target: T1, WzcCDΔC (Escherichia coli, UniProt P76387); assay: isothermal titration calorimetry, one-site model; type: binding
T1 sequence (P76387 447-704 limits assumed): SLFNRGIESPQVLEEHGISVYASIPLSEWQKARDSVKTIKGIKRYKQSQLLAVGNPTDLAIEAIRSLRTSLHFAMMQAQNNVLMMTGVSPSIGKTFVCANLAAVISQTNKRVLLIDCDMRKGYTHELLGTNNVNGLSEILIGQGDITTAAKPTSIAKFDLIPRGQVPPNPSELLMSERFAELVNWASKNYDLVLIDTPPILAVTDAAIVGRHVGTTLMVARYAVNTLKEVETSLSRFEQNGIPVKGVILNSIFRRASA

WzcCDΔC [2] = molecular target: T2, WzcCDΔC (Escherichia coli, UniProt P76387, K540M); assay: isothermal titration calorimetry, one-site model; type: binding
T2 sequence (P76387 447-704 K540M limits assumed): T1 sequence (P76387 447-704 limits assumed) with K94M

## Nc1ncnc2c1ncn2[C@@H]1O[C@H](COP(=O)(O)OP(=O)(O)O)[C@@H](O)[C@H]1O [ADP]
WzcCDΔC [1]
  Kd: 2600 ± 1100 nM
WzcCDΔC [2]
  Kd: 500 ± 200 nM
